Source: ChEMBL document CHEMBL4261494, “Design, synthesis and biological evaluation of novel Schiff base-bridged tetrahydroprotoberberine triazoles as a new type of potential antimicrobial agents” (Medchemcomm, 2017)
In brackets after ≈: the same amount, converted by molar mass. Activity calls are given as the source filed them. No cut-off for these calls is given here.

What was measured:
Staphylococcus aureus [1] = assay type: functional; details: ATCC 25923, 24 h
Staphylococcus aureus [2] = assay type: functional; details: N315, 24 h
Bacillus spizizenii = assay type: functional; details: ATCC 6633, 24 h
Micrococcus luteus = assay type: functional; details: ATCC 4698, 24 h
Escherichia coli [3] = assay type: functional; details: JM109, 24 h
Escherichia coli [4] = assay type: functional; details: DH52, 24 h
Shigella dysenteriae = assay type: functional; details: 24 h
Pseudomonas aeruginosa = assay type: functional; details: ATCC 27853, 24 h
Proteus vulgaris = assay type: functional; details: ATCC 13315, 24 h
Cyberlindnera jadinii = assay type: functional; details: for MIC: Williopsis jadinii, ATCC 9950, 24 h
[5] = Aqueous solubility of the compound in pH 7.4 phosphate buffer at 1 mg after 3 hrs by UV absorption analysis; assay type: physicochemical
Salmonella typhi = test: microbe, parasite or virus in culture; details: Salmonella enterica, 24 h
Staphylococcus aureus [6] = test: Potency index, ratio of chloromycin MIC to test compound MIC for methicillin-resistant Staphylococcus aureus N315; assay type: functional
Staphylococcus aureus [7] = test: Potency index, ratio of norfloxacin MIC to test compound MIC for methicillin-resistant Staphylococcus aureus N315; assay type: functional
Candida albicans = assay type: functional
Kregervanrija fluxuum = assay type: functional
Aspergillus flavus = assay type: functional
Saccharomyces cerevisiae = assay type: functional; details: 24 h
Staphylococcus aureus [8] = test: Bactericidal activity against methicillin-resistant Staphylococcus aureus N315 assessed as log reduction in viable bacterial count at 4 times MIC incubated up to 1 hr followed by replating on yeast-dextrose agar plates and measured after 24 hrs by time kill assay; assay type: functional
Staphylococcus aureus [9] = test: Antibacterial activity against methicillin-resistant Staphylococcus aureus N315 after 14 passages; assay type: functional, organism-based
Calf thymus DNA [10] = test: Binding affinity to calf thymus DNA assessed as increase in hypochromic effect up to 2 x 10^-5 mol/L by UV absorption spectral analysis; assay type: nucleic-acid assay; details: Bos taurus
Calf thymus DNA [11] = test: Binding affinity to calf thymus DNA by UV absorption spectral analysis; assay type: nucleic-acid assay; details: Bos taurus
Calf thymus DNA [12] = test: Inhibition of neutral red binding to calf thymus DNA up to 2 x 10^-5 mol/L by UV absorption spectral analysis; assay type: nucleic-acid assay; details: Bos taurus
DNA [13] = test: Induction of Escherichia coli supercoiled pUC19 DNA cleavage at 0.0125 mM after 16 hrs in absence of Zn2+ by ethidium bromide staining-based agarose gel electrophoresis method; assay type: nucleic-acid assay
DNA [14] = test: Induction of Escherichia coli supercoiled pUC19 DNA cleavage at 0.0125 mM after 16 hrs in presence of Zn2+ by ethidium bromide staining-based agarose gel electrophoresis method; assay type: nucleic-acid assay
Albumin [15] = biological target: T1, Albumin (Homo sapiens, UniProt P02768); test: Binding affinity to HSA assessed as quenching constant at 288 K by UV-vis absorption spectral analysis; assay type: ADME; details: isolated protein
T1 sequence (P02768 whole entry): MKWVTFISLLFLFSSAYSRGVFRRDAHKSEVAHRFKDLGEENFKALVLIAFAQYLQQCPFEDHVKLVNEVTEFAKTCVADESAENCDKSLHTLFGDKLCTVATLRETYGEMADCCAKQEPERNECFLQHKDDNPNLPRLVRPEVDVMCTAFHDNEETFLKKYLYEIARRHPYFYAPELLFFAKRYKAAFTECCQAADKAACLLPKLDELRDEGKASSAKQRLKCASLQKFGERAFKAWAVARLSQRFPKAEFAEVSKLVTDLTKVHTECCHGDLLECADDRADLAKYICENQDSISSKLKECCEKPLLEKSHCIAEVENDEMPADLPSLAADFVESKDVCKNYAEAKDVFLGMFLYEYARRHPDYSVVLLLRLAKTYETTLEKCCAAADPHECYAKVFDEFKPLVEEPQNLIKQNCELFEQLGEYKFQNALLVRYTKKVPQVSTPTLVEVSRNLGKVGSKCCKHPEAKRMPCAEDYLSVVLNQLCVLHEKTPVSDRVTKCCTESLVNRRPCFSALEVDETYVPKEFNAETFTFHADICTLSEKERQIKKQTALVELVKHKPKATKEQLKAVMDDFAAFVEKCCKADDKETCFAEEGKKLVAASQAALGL

Albumin [16] = biological target: T1, Albumin; test: Binding affinity to HSA assessed as quenching constant at 298 K by UV-vis absorption spectral analysis; assay type: ADME; details: isolated protein
Albumin [17] = biological target: T1, Albumin; test: Binding affinity to HSA assessed as quenching constant at 310 K by UV-vis absorption spectral analysis; assay type: ADME; details: isolated protein
Staphylococcus aureus [18] = test: Antibacterial activity against methicillin-resistant Staphylococcus aureus N315 after 5 passages; assay type: functional, organism-based

SMILES	MIC (Staphylococcus aureus [1])	MIC (Staphylococcus aureus [2])	MIC (Bacillus spizizenii)	MIC (Micrococcus luteus)	MIC (Escherichia coli [3])	MIC (Escherichia coli [4])	MIC (Shigella dysenteriae)	MIC (Pseudomonas aeruginosa)	MIC (Proteus vulgaris)	solubility at 3 h [5]	MIC (Salmonella typhi)	other results
COc1cc(/C=N/n2cnnc2)c2c(c1OCc1ccc(Cl)cc1)CN1CCc3cc4c(cc3C1C2)OCO4 (centres undefined)	8 µg/mL (≈ 14.7 µM)	32 µg/mL (≈ 58.8 µM)	16 µg/mL (≈ 29.4 µM)	16 µg/mL (≈ 29.4 µM)	8 µg/mL (≈ 14.7 µM)	32 µg/mL (≈ 58.8 µM)	64 µg/mL (≈ 118 µM)	4 µg/mL (≈ 7.35 µM)	8 µg/mL (≈ 14.7 µM)	613 µg/mL (≈ 1130 µM)	8 µg/mL (≈ 14.7 µM)	MIC (Cyberlindnera jadinii): 0.5 µg/mL (≈ 0.919 µM)
CCCCOc1c(OC)cc(/C=N/n2cnnc2)c2c1CN1CCc3cc4c(cc3C1C2)OCO4 (centres undefined)	16 µg/mL (≈ 33.6 µM)	8 µg/mL (≈ 16.8 µM)	16 µg/mL (≈ 33.6 µM)	1 µg/mL (≈ 2.1 µM)	16 µg/mL (≈ 33.6 µM)	32 µg/mL (≈ 67.3 µM)	8 µg/mL (≈ 16.8 µM)	16 µg/mL (≈ 33.6 µM)	16 µg/mL (≈ 33.6 µM)	121 µg/mL (≈ 254 µM)	16 µg/mL (≈ 33.6 µM)	–
COc1cc(/C=N/n2cnnc2)c2c(c1OCc1ccc(F)cc1)CN1CCc3cc4c(cc3C1C2)OCO4 (centres undefined)	32 µg/mL (≈ 60.7 µM)	8 µg/mL (≈ 15.2 µM)	32 µg/mL (≈ 60.7 µM)	2 µg/mL (≈ 3.79 µM)	32 µg/mL (≈ 60.7 µM)	16 µg/mL (≈ 30.3 µM)	16 µg/mL (≈ 30.3 µM)	8 µg/mL (≈ 15.2 µM)	128 µg/mL (≈ 243 µM)	185 µg/mL (≈ 351 µM)	4 µg/mL (≈ 7.58 µM)	–
COc1cc(/C=N/n2cnnc2)c2c(c1OCc1ccccc1)CN1CCc3cc4c(cc3C1C2)OCO4 (centres undefined)	8 µg/mL (≈ 15.7 µM)	2 µg/mL (≈ 3.92 µM)	32 µg/mL (≈ 62.8 µM)	1 µg/mL (≈ 1.96 µM)	32 µg/mL (≈ 62.8 µM)	16 µg/mL (≈ 31.4 µM)	32 µg/mL (≈ 62.8 µM)	8 µg/mL (≈ 15.7 µM)	16 µg/mL (≈ 31.4 µM)	178 µg/mL (≈ 349 µM)	4 µg/mL (≈ 7.85 µM)	Ratio (Staphylococcus aureus [6]): 8; Ratio (Staphylococcus aureus [7]): 4; MIC (Candida albicans; ATCC 10231, 24 h): 0.5 to 32 µg/mL (≈ 0.981 to 62.8 µM); MIC (Kregervanrija fluxuum; ATCC 9888, 24 h): 0.5 to 32 µg/mL (≈ 0.981 to 62.8 µM); MIC (Cyberlindnera jadinii): 0.5 to 32 µg/mL (≈ 0.981 to 62.8 µM); MIC (Aspergillus flavus; ATCC 204304, 24 h): 0.5 to 32 µg/mL (≈ 0.981 to 62.8 µM); MIC (Saccharomyces cerevisiae): 0.5 µg/mL (≈ 0.981 µM); FC (Staphylococcus aureus [8]): >3; Activity (Staphylococcus aureus [9]): Active; Activity (Calf thymus DNA [10]): Active; K (Calf thymus DNA [11]): 2.27 ×10⁴ L/mol; inhibition (Calf thymus DNA [12]): Active; Activity (DNA [13]): inactive; Activity (DNA [14]): Active; Kq (Albumin [15]): 2.55 ×10¹³ L/mol/s; Kq (Albumin [16]): 2.05 ×10¹³ L/mol/s; Kq (Albumin [17]): 1.7 ×10¹³ L/mol/s
CCCCCCCCOc1c(OC)cc(/C=N/n2cnnc2)c2c1CN1CCc3cc4c(cc3C1C2)OCO4 (centres undefined)	8 µg/mL (≈ 15 µM)	16 µg/mL (≈ 30.1 µM)	16 µg/mL (≈ 30.1 µM)	16 µg/mL (≈ 30.1 µM)	32 µg/mL (≈ 60.2 µM)	16 µg/mL (≈ 30.1 µM)	64 µg/mL (≈ 120 µM)	512 µg/mL (≈ 963 µM)	16 µg/mL (≈ 30.1 µM)	–	16 µg/mL (≈ 30.1 µM)	–
CCCCCCCCCCCCOc1c(OC)cc(/C=N/n2cnnc2)c2c1CN1CCc3cc4c(cc3C1C2)OCO4 (centres undefined)	256 µg/mL (≈ 436 µM)	512 µg/mL (≈ 871 µM)	256 µg/mL (≈ 436 µM)	512 µg/mL (≈ 871 µM)	512 µg/mL (≈ 871 µM)	256 µg/mL (≈ 436 µM)	512 µg/mL (≈ 871 µM)	512 µg/mL (≈ 871 µM)	256 µg/mL (≈ 436 µM)	97 µg/mL (≈ 165 µM)	256 µg/mL (≈ 436 µM)	–
COc1cc(/C=N/n2cnnc2)c2c(c1O)CN1CCc3cc4c(cc3C1C2)OCO4 (centres undefined)	64 µg/mL (≈ 153 µM)	16 µg/mL (≈ 38.1 µM)	512 µg/mL (≈ 1220 µM)	1 µg/mL (≈ 2.38 µM)	128 µg/mL (≈ 305 µM)	128 µg/mL (≈ 305 µM)	256 µg/mL (≈ 610 µM)	128 µg/mL (≈ 305 µM)	64 µg/mL (≈ 153 µM)	392 µg/mL (≈ 935 µM)	128 µg/mL (≈ 305 µM)	Activity (Candida albicans; ATCC 10231): inactive; Activity (Kregervanrija fluxuum; ATCC 9888): inactive; Activity (Cyberlindnera jadinii; ATCC 9950): inactive; Activity (Aspergillus flavus; ATCC 204304): inactive
COc1cc(/C=N/n2cnnc2)c2c(c1OCc1ccccc1Cl)CN1CCc3cc4c(cc3C1C2)OCO4 (centres undefined)	16 µg/mL (≈ 29.4 µM)	16 µg/mL (≈ 29.4 µM)	32 µg/mL (≈ 58.8 µM)	256 µg/mL (≈ 471 µM)	4 µg/mL (≈ 7.35 µM)	64 µg/mL (≈ 118 µM)	16 µg/mL (≈ 29.4 µM)	2 µg/mL (≈ 3.68 µM)	512 µg/mL (≈ 941 µM)	–	1 µg/mL (≈ 1.84 µM)	–
CCn1cc(C(=O)O)c(=O)c2cc(F)c(N3CCNCC3)cc21 [NORFLOXACIN]	0.5 µg/mL (≈ 1.57 µM)	8 µg/mL (≈ 25.1 µM)	4 µg/mL (≈ 12.5 µM)	4 µg/mL (≈ 12.5 µM)	1 µg/mL (≈ 3.13 µM)	1 µg/mL (≈ 3.13 µM)	4 µg/mL (≈ 12.5 µM)	16 µg/mL (≈ 50.1 µM)	8 µg/mL (≈ 25.1 µM)	–	4 µg/mL (≈ 12.5 µM)	Activity (Staphylococcus aureus [18]): inactive
